Data as given in article PMC10023787, “Trio-pharmacophore DNA-encoded chemical library for simultaneous selection of fragments and linkers” (Nature Communications, 2023).

Tests used:
[1] = biological target: T1, MMP-9 (Homo sapiens, UniProt P14780); assay: MMP-9 inhibition assay (fluorogenic peptide substrate); assay type: biochemical; parameters: remaining enzyme activity (% of control): scale not given here; details: for IC50: mean ± SE, n.d: not detected, Fig. 5e prints no unit, µM, read-out: IC50
T1 construct: purchased Sino Biological 10327-HNAH
T1 sequence (P14780 107-707 limits assumed): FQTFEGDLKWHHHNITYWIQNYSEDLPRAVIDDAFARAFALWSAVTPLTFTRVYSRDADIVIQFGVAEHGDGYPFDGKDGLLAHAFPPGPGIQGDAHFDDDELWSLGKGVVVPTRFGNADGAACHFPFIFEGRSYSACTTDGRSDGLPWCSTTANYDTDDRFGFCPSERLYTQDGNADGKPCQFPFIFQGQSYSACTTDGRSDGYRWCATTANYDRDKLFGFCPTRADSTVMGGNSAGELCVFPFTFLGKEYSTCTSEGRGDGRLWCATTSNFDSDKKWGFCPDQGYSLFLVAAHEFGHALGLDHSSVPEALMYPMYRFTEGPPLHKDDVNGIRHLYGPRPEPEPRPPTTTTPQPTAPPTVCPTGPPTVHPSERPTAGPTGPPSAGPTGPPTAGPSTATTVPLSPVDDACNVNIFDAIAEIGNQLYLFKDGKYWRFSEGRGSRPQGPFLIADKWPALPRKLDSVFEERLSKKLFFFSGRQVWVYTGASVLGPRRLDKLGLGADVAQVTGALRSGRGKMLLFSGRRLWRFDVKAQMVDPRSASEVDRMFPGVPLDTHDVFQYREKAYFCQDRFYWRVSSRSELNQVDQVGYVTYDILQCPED
Protocol: (§1) The inhibition by the small molecule compounds against MMP-2/MMP-9 was measured using an assay probing the enzyme proteolytic activity on the substrate DNP-Pro-Leu-Gly-Met-Trp-Ser-Arg (Enzo Life Sciences, USA). All assays were performed in the assay buffer containing 50 mM Tris, 100 mM NaCl. 5 mM CaCl2, and 0.1% Brij 35, pH 7.5. Human proMMP-2 and proMMP-9 were purchased from Sino biological (Germany). The proMMPs were activated by 1 mM APMA in the assay buffer at 37 °C for 2 h. After activation, MMP-2 was diluted to 6.5 nM of final assay concentration, and MMP-9 was diluted by the buffer to reach 10 nM of final assay concentration. In each well, 49 μl of enzyme solution was incubated with 1 μl of compounds of series of concentration (nM-mM in DMSO) at RT for 30 min. 2 μl of the FRET substrate was added right before the measurement at a final concentration of 25 μM. The rate of hydrolysis was monitored by quantifying the emission at 360 nm (ex: 280 nm). The emission was measured with intervals of the 30 s for 30 min with Synergy H1 Plate Reader (Agilent, USA). The measurements were done in triplicate. […] Then, curves were plotted as a function of the concentration of the inhibitor against the relative enzyme activity. Vmax was derived from the detected […] signal for each concentration and logistic fitting was performed to obtain IC50 values using Origin 2019b (OriginLab).

[2] = biological target: T2, MMP-2 (Homo sapiens, UniProt P08253); assay: MMP-2 inhibition assay (fluorogenic peptide substrate); assay type: biochemical; details: for IC50: mean ± SE, n.d: not detected, Fig. 5d unit inferred, µM, read-out: IC50
T2 construct: purchased Sino Biological 10082-HNAH
T2 sequence (P08253 110-660): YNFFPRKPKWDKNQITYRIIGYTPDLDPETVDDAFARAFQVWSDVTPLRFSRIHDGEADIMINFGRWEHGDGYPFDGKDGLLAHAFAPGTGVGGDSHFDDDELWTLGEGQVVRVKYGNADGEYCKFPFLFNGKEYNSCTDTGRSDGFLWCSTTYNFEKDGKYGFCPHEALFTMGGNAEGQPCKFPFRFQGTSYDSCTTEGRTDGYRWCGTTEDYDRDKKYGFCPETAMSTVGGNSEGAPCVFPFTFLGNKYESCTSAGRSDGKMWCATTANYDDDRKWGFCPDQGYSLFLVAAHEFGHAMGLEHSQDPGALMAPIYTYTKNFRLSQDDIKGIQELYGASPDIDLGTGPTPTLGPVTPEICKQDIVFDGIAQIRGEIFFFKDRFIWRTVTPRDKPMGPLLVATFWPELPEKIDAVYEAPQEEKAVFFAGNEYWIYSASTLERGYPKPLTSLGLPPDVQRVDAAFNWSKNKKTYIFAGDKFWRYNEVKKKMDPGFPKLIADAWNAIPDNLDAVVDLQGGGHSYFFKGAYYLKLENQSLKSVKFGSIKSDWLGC
Protocol: as §1

[3] = MMP-9, concentration 1219.00 µM
[4] = MMP-2, concentration 1219.00 µM

Row | remaining enzyme activity (% of control) ([1]; MMP-9, concentration 0.08 µM) | remaining enzyme activity (% of control) ([1]; MMP-9, concentration 0.39 µM) | remaining enzyme activity (% of control) ([1]; MMP-9, concentration 1.95 µM) | remaining enzyme activity (% of control) ([1]; MMP-9, concentration 9.75 µM) | remaining enzyme activity (% of control) ([1]; MMP-9, concentration 48.76 µM) | remaining enzyme activity (% of control) ([1]; MMP-9, concentration 243.80 µM) | remaining enzyme activity (% of control) [1, 3] | IC50 [1] | remaining activity (%) ([2]; MMP-2, concentration 0.0156 µM) | remaining activity (%) ([2]; MMP-2, concentration 0.08 µM) | remaining activity (%) ([2]; MMP-2, concentration 0.39 µM) | remaining activity (%) ([2]; MMP-2, concentration 9.75 µM) | remaining activity (%) ([2]; MMP-2, concentration 48.76 µM) | remaining activity (%) ([2]; MMP-2, concentration 243.80 µM) | remaining activity (%) [2, 4] | IC50 [2] | remaining activity (%) ([2]; MMP-2, concentration 1.95 µM) | Structure (SMILES) | further results
1 | 91.89 | 89.82 | 91.34 | 95.46 | 62.79 | 34.94 | 0.00 | 134 ± 39.6 µM | 85.89 | 83.14 | 79.52 | 75.23 | 75.41 | 40.43 | 0.00 | 193 ± 24.2 µM | – | O=C(CCC(=O)NCc1c[nH]nn1)NCCCCCCCCNC(=O)Cn1cnc2c(oc3ccccc32)c1=O [182+787 Linker 4] | –
2 | 100.62 | 94.43 | 101.63 | 94.48 | 72.77 | 28.00 | 0.00 | 126 ± 12 µM | 104.21 | 112.47 | 110.12 | 97.01 | 78.57 | 30.14 | 0.00 | 137 ± 37.5 µM | 98.52 | O=C(CCC(=O)NCc1c[nH]nn1)NCCOCCOCCNC(=O)Cn1cnc2c(oc3ccccc32)c1=O [182+787 Linker 10] | –
3 | – | – | – | – | – | – | – | 126 ± 9.6 µM | – | – | – | – | – | – | – | 45.9 ± 16.2 µM | – | O=C(CSCCNC(=O)Cn1cnc2c(oc3ccccc32)c1=O)NCc1c[nH]nn1 [182+787 Linker 24] | remaining enzyme activity (% of control) ([1]; MMP-9, concentration 0.0855 µM): 86.26; remaining enzyme activity (% of control) ([1]; MMP-9, concentration 0.43 µM): 83.15; remaining enzyme activity (% of control) ([1]; MMP-9, concentration 2.14 µM): 95.29; remaining enzyme activity (% of control) ([1]; MMP-9, concentration 10.69 µM): 93.78; remaining enzyme activity (% of control) ([1]; MMP-9, concentration 53.44 µM): 70.78; remaining enzyme activity (% of control) ([1]; MMP-9, concentration 267.20 µM): 19.03; remaining activity (%) ([2]; MMP-2, concentration 0.0171 µM): 92.17; remaining activity (%) ([2]; MMP-2, concentration 0.0855 µM): 86.66; remaining activity (%) ([2]; MMP-2, concentration 0.43 µM): 97.11; remaining activity (%) ([2]; MMP-2, concentration 2.14 µM): 88.49; remaining activity (%) ([2]; MMP-2, concentration 10.69 µM): 87.27; remaining activity (%) ([2]; MMP-2, concentration 53.44 µM): 39.59; remaining activity (%) ([2]; MMP-2, concentration 267.20 µM): 13.68
4 | – | – | 89.70 | – | – | – | – | – | – | – | – | – | – | – | – | – | 93.31 | Cn1c(O)nc2cc(C(=O)NCCNC(=O)Cn3cnc4c(oc5ccccc54)c3=O)cnc21 [182+826 Linker 1] | remaining enzyme activity (% of control) ([1]; MMP-9, concentration 0.12 µM): 83.90; remaining enzyme activity (% of control) ([1]; MMP-9, concentration 0.49 µM): 96.21; remaining enzyme activity (% of control) ([1]; MMP-9, concentration 7.81 µM): 92.69; remaining enzyme activity (% of control) ([1]; MMP-9, concentration 31.25 µM): 77.21; remaining enzyme activity (% of control) ([1]; MMP-9, concentration 125.00 µM): 71.00; remaining enzyme activity (% of control) ([1]; MMP-9, concentration 500.00 µM): 60.44; remaining activity (%) ([2]; MMP-2, concentration 0.12 µM): 94.84; remaining activity (%) ([2]; MMP-2, concentration 0.49 µM): 90.90; remaining activity (%) ([2]; MMP-2, concentration 7.81 µM): 101.10; remaining activity (%) ([2]; MMP-2, concentration 31.25 µM): 86.65; remaining activity (%) ([2]; MMP-2, concentration 125.00 µM): 86.38; remaining activity (%) ([2]; MMP-2, concentration 500.00 µM): 61.56
